The conditions of series [1]: background statement; cited from earlier work.
The conditions of series [2]: background statement; cited from earlier work. The source holds these as a separate data set.
Another series can be described thus: Solubility in water. The class given is physicochemical. An excerpt: 55, no. 1, pp. 578-582] at physiological pH in the intestinal region.
For this reason, hydroalcoholic solutions are usually prepared dissolving an adequate amount of active substance in solubilizers such as water-soluble alcohols. However, the so prepared solutions have low stability because large amounts of budesonide are decomposed within a short time. Moreover, budesonide formulations have been prepared until now in the form of aqueous suspensions in which the solid phase tends in time to deposit onto the bottom of the container, thus requiring chemical additives or vigorous stirring. These are the reasons that make budesonide not suitable to be delivered by an electric nebulizer.
Budesonide 21-phosphate disodium salt has a much higher water solubility than Budesonide and Budesonide 21-phosphate.

A short description of series [3]: Stability in aqueous solution at the concentration of use, room temperature. Format: physicochemical. The settings on record: concentration of use 0.25 mg ml-4.0 mg ml. The protocol: At the concentration of use (0.25 mg ml-4.0 mg ml), it is rapidly soluble and remains stable at room temperature for long periods of time (12 months) without yellowing or precipitating.

Series [4] can be described thus: ICH stability testing of budesonide 21-phosphate disodium salt (drug substance). Format: physicochemical. The settings on record: for assay content by HPLC: specification 95.0-105.0%; for unknown impurities: specification ≤0.1%; for known impurities: specification ≤0.2%. The protocol: Purity was assessed through the HPLC method of the European Pharmacopoeia 1075-Budesonide-related substance. […]

Setting [5] is: 40° C. and 75% RH (accelerated), Time 0.
[6] abbreviates: 40° C. and 75% RH (accelerated), Time 3 m.
Setting [7] is: 40° C. and 75% RH (accelerated), Time 6 m.

The values below come from US20240343757A1, “PROCESS FOR THE PREPARATION OF BUDESONIDE 21-PHOSPHATE” (GENETIC S.P.A., priority 2021, published 2024).

Where only a bound is given, the exact number is not on record here.

In the case of `CCCC1OC2CC3C4CCC5=CC(=O)C=CC5(C)C4C(O)CC3(C)C2(C(=O)CO)O1` (stereo not drawn) [Budesonide, 1β,21-dihydroxy-16α, 17α-(butylidenebis(oxy)) pregna-1,4-diene-3,20-dione], in series [1], the “solubility in alcohols” value is given as “readily soluble in alcohols”. Further, the “solubility in water” value in series [2] was “virtually insoluble in water”.

As for Budesonide 21-phosphate disodium salt, in “Solubility in water”, the water solubility came to 110 mg/mL. Besides, in the series “Solubility in water” (freely soluble = 100-1000 mg/mL), the “water solubility class” value is reported as “freely soluble in water”. Besides, the “period stable in solution without yellowing or precipitating” value in series [3] is given as 12 months. Moreover, the “assay content by HPLC” value in series [4] (25° C. and 60% RH, Time 0) is 98.22%; in series [4] (25° C. and 60% RH, Time 3 m), 98.10%; in series [4] (25° C. and 60% RH, Time 6 m), 98.08%; in series [4] (25° C. and 60% RH, Time 9 m) it was 97.85%; in series [4] (25° C. and 60% RH, Time 12 m), 97.45%; in series [4] (30° C. and 65% RH, Time 0), 98.22%. Further, the “assay content by HPLC” value in series [4] (30° C. and 65% RH, Time 3 m) is listed as 97.50%; in series [4] (30° C. and 65% RH, Time 6 m), 97.28%; in series [4] (30° C. and 65% RH, Time 9 m), 97.00%; in series [4] (30° C. and 65% RH, Time 12 m), 94.55%; in series [4] (setting [5]), 98.22%; in series [4] (setting [6]) it was 96.50%. Moreover, in series [4] (setting [7]), the “assay content by HPLC” value is 93.28%. Besides, the unknown impurities in series [4] (25° C. and 60% RH, Time 0) was found to be 0.05%; in series [4] (25° C. and 60% RH, Time 3 m) it was 0.05%; in series [4] (25° C. and 60% RH, Time 6 m), 0.05%; in series [4] (25° C. and 60% RH, Time 9 m), 0.08%; in series [4] (25° C. and 60% RH, Time 12 m) it was 0.08%; in series [4] (30° C. and 65% RH, Time 0) it was 0.05%. Besides, the unknown impurities in series [4] (30° C. and 65% RH, Time 3 m) is 0.15%; in series [4] (30° C. and 65% RH, Time 6 m), 0.15%; in series [4] (30° C. and 65% RH, Time 9 m) it was 0.40%; in series [4] (30° C. and 65% RH, Time 12 m) it was 0.40%; in series [4] (setting [5]), less than 0.05%; in series [4] (setting [6]), 2.45%. Also, in series [4] (setting [7]), the unknown impurities is on record as 2.80%. For the same molecule, the known impurities came out at 0.14% in series [4] (25° C. and 60% RH, Time 0); 0.14% in series [4] (25° C. and 60% RH, Time 3 m); 0.14% in series [4] (25° C. and 60% RH, Time 6 m); 0.15% in series [4] (25° C. and 60% RH, Time 9 m); 0.15% in series [4] (25° C. and 60% RH, Time 12 m); 0.14% in series [4] (30° C. and 65% RH, Time 0). For the same molecule, the known impurities is given as 0.20% in series [4] (30° C. and 65% RH, Time 3 m); 0.25% in series [4] (30° C. and 65% RH, Time 6 m); 0.25% in series [4] (30° C. and 65% RH, Time 9 m); 0.30% in series [4] (30° C. and 65% RH, Time 12 m); 0.14% in series [4] (setting [5]); 0.30% in series [4] (setting [6]). Also, the known impurities in series [4] (setting [7]) amounted to 0.45%.
